The text below walks through data of PubChem BioAssay (NCI).

Test in all cases: NCI tumour cell line growth inhibition, 48 h
Assay [1] concerns CAKI-1 renal.
Assay [2] deals with COLO 205 colon.
The subject of assay [3] is HOP-62 NSCLC.
The subject of assay [4] is HT29 colon.
The subject of assay [5] is OVCAR-4 ovarian.
The test system of assay [6] is OVCAR-5 ovarian.
Assay [7] deals with SF-295 CNS.
Assay [8] deals with T-47D breast.
Assay [9] has as its system TK-10 renal.
Assay [10] has as its system U251 CNS.

Where “and” joins values, the source holds several entries; their conditions need not be identical. Equal entries are not always repeated.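 Following 48 hours of exposure in 96-well plates, responses at five concentrations were used to interpolate endpoints linearly. GI50: concentration for 50% inhibition of growth. Definition used: TGI = concentration required for complete inhibition of growth.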 Where only a bound is given, the exact number is not on record here.

`CCC(CCC(C)C1CCC2C3CC=C4CC(OC5OC(CO)C(O)C(O)C5O)CCC4(C)C3CCC12C)C(C)C` (stereo unspecified): the TGI in assay [1], in assay [2], in [3], in assay [4], in assay [5] and in [6] was over 100 µM in each case. The TGI in assay [7], in assay [8], in assay [9] and in assay [10] was over 100 µM in each case.

`C[C@]12CC[C@H]3[C@@H](CCC4=CC(=O)CC[C@@]43C)[C@@H]1CC[C@@H]2C(=O)COS(=O)(=O)c1ccc(Br)cc1`: the TGI in assay [1] was 19.7 µM; in [2], 53.1 µM; in assay [3] it was 46.6 µM; in assay [4], 30.3 µM; in assay [5] it was over 51.2 µM; in assay [6], 35.2 µM. Moreover, the TGI in assay [7] stood at 47.3 µM; in assay [8], 37.5 µM; in [9], 34.5 µM; in assay [10], 26.2 µM.

In the case of `Clc1cc2c(nn1)Nc1ccccc1S2`, the GI50 in assay [1], in assay [2], in [3], in [4], in assay [5] and in [6] was over 100 µM each time. For the same compound, the GI50 in assay [7], in assay [8], in assay [9] and in assay [10] was over 100 µM each time. The TGI in assay [1], in assay [2], in assay [3], in assay [4], in assay [5] and in assay [6] was over 100 µM throughout. Also, the TGI in assay [7], in assay [8], in assay [9] and in assay [10] was over 100 µM in each case.

For `CCCCCc1cc[n+](CC(=O)c2ccc([N+](=O)[O-])cc2)cc1`, the GI50 in assay [1] is 11.2 µM; in assay [2], 1.62 µM; in assay [3], 3.94 µM; in [4] it was 2.39 µM; in [5] it was 2.53 µM; in assay [6], 22 µM. Also, the GI50 in [7] was 6.52 µM; in assay [8], 6.02 µM; in assay [9], 9.65 µM; in [10], 4.44 µM. For the same compound, the TGI in assay [1] stood at 34.8 µM; in assay [2] it was 2.97 µM; in [3] it was 28.3 µM; in [4] it was 8.32 µM; in [5], 13.1 µM; in assay [6], 97.9 µM. For the same compound, the TGI in [7] is 24.3 µM; in [8], 28.2 µM; in assay [9] it was 33.7 µM; in [10] it was 28.2 µM.

Consider `CC(=O)c1ccc(Nc2nc(Nc3ccc(F)cc3)nc(Nc3ccc(F)cc3)n2)cc1`, for which the GI50 is 9.02 µM in assay [1]; 5.61 µM in assay [2]; 13.7 µM in assay [3]; 5.79 µM in assay [4]; 10.9 µM in assay [5]; 35.1 µM in assay [6]. Moreover, the GI50 in assay [7] was 7.13 µM; in assay [8], 4.77 µM; in assay [9] it was 15.6 µM; in assay [10], 11.7 µM. The TGI in assay [1] is 27.7 µM; in assay [2], 43.7 µM; in [3] it was 32.5 µM; in assay [4] it was over 100 µM; in [5], 41.3 µM; in [6], over 100 µM. In addition, the TGI amounted to 24.2 µM in [7], 65.2 µM in assay [8], 42.2 µM in [9] and 30.1 µM in assay [10].

For `Clc1nc(Cl)c2c3c(sc2n1)CCCC3`, the GI50 in [1] is over 100 µM; in assay [2], 2.75 µM; in assay [3], over 100 µM; in assay [4], 3.67 µM; in assay [5] it was 5.5 µM; in [6], over 100 µM. For the same compound, the GI50 in assay [7] is over 100 µM; in assay [8], over 22.1 µM; in assay [9] it was 5.34 µM; in [10] it was over 20 µM. For the same compound, the TGI was over 100 µM in assay [1]; over 22.6 µM in assay [2]; over 100 µM in assay [3]; over 100 µM in assay [4]; over 100 µM in [5]; over 100 µM in assay [6]. Also, the TGI in assay [7], in assay [8], in assay [9] and in [10] was over 100 µM throughout.

Consider `CN(C)CCC=C1c2ccccc2C(C)(C)c2ccccc21`, for which the GI50 is 8.56 µM in assay [1]; 3.82 µM in assay [2]; 17.4 µM in assay [3]; 3.06 µM in assay [4]; 12.5 µM in [5]; 15.9 µM in assay [6]. The GI50 in [7] was 3.92 µM; in assay [8] it was 11.5 µM; in assay [9], 18.4 µM; in [10], 12.2 µM. In addition, the TGI in assay [1] stood at 23.6 µM; in [2] it was 14.3 µM; in assay [3], 33.5 µM; in assay [4] it was 13.6 µM; in assay [5], 26.6 µM; in assay [6], 31.4 µM. The TGI in assay [7] was determined as 19.7 µM; in [8] it was 27.4 µM; in assay [9] it was 37 µM; in assay [10], 26.1 µM.

For the compound `C=C1COC(O)(C2OCOC(C3CC(=O)NC(=O)C3)C2O)C1C` (stereo unspecified), the GI50 is 0.00394 µM and 0.019 µM in assay [1]; 0.00292 µM in assay [2]; 0.00277 µM in [3]; 0.00331 µM and 0.017 µM in [6]; 0.00249 µM in [7]; 0.00457 µM in assay [8]. Also, the GI50 in assay [9] is 0.00456 µM; in [10], 0.00275 µM. The TGI in [2] was 0.0128 µM; in assay [3], 0.0357 µM and 0.0382 µM; in assay [4], 0.0207 µM and 0.0511 µM; in assay [5] it was 0.0181 µM and 0.0242 µM; in assay [6], 0.0499 µM and 0.0546 µM; in assay [7], 0.018 µM and 0.0423 µM. Moreover, the TGI is 0.0539 µM and 0.0498 µM in assay [9]; 0.0376 µM and 0.0739 µM in assay [10].
